Data set [1] can be described thus: Half life in presence of glutathione. The format is ADME. Conditions: solution containing glutathione.
The nature of data set [2]: Half life in presence of sodium dimethyldithiocarbamate. Particulars: solution containing sodium dimethyldithiocarbamate. The format is ADME.

For `COC1=CC(=O)c2c(c(COP(N)(=O)N(CCBr)CCBr)cn2C)C1=O` (stereo not drawn), the half-life – broadly, the time in which the quantity being followed falls by half – in data set [1] is 35 min; in data set [2] it was 14 min.

For `COC1=CC(=O)c2c(cc(COP(N)(=O)N3CCOCC3)n2C)C1=O` (stereo not drawn), the values for the half-life in data set [1] and in data set [2] were 716 min and 659 min, respectively.

With `COC1=CC(=O)c2c(cc(COP(N)(=O)N(CCBr)CCBr)n2C)C1=O` (stereo not drawn), the half-life in data set [1] amounted to 653 min; in data set [2], 26 min.

As for `COC1=CC(=O)c2c(c(COP(N)(=O)N3CCOCC3)cn2C)C1=O` (stereo not drawn), the half-life was 83 min in data set [1] and 34 min in data set [2].

For the origin of these results see ChEMBL document CHEMBL1145013, “Studies on the mechanisms of activation of indolequinone phosphoramidate prodrugs” (J Med Chem, 2003).
